In patent publication US20250136934A1, “PRODUCTION OF INDUCED MIDBRAIN DOPAMINERGIC PROGENITOR CELLS FROM PLURIPOTENT STEM CELLS” (NUWACELL BIOTECHNOLOGIES CO., LTD., priority 2023, published 2025):

Tested on: FOXA2+ imDAP cells
Test: FACS analysis of FOXA2 expression of imDAP cells derived from hiPSCs
Type: cell-based, human
Details: 4-step protocol, Day 16
Protocol: • 1. Individualize and collect cells by either Accutase or TrypLE treatment. • 2. Wash cells with 1 ml PBS and pellet cells at 250×g for […]. • 3. Remove supernatant, add ˜200 μl of 4% PFA, mix and fix for 10 min at RT. • 4. Pellet cells at 350×g for 5 min. • 5. Wash cells by 1 ml of FACS buffer and pellet cells at 350×g for 5 min. • 6. Remove supernatant, add 200 μl/tube of FACS buffer/0.1% Triton X, mix for 10 min at RT. • 7. Wash cells by 1 ml of FACS buffer and pellet cells at 350×g for 5 min. • 8. Remove supernatant, add 200 μl/tube of primary antibody diluted in FACS buffer, mix gently, and incubate for 30 min at RT. • 9. Wash cells by 1 ml of FACS buffer and pellet cells at 350×g for 5 min. • 10. Remove supernatant, and add 200 μl of secondary antibody diluted in FACS buffer, mix gently, and incubate for 30 min at RT. • 11. Wash cells by 1 ml of FACS buffer and pellet cells at 300×g for 5 min. • 12. Remove supernatant, add 200 μl of FACS buffer, and run samples on the flow cytometer.
On Day-1, EB formation (Stage 1) was carried out by dissociating hiPSCs (Nuwacell) to form a single-cell suspension and resuspending it in Epic medium (Nuwacell, #RP01001) containing 10 μM Blebbistatin (MCE, #HY-13441) in T25 flasks on a belly dancer and culturing the cells overnight. On Day 0, ventral midbrain floor plate differentiation (Stage 2) was initiated by changing the medium to a Stage 2-1 differentiation medium containing DMEM: F12/B27 (plus Vitamin A) (98:2, v/v) as basal medium and supplemented with 0.2 μM LDN193189, 10 μM SB431542, 1 μg/mL SHH C24II and 1.25 μM CHIR99021 and culturing the cells for 3 Days. From Day 3, the basal medium was changed to DMEM: F12/B27 (minus Vitamin A) (98:2, v/v), and CHIR concentration was boosted to 7.5 μM until Day 10 (Stage 2-2). SB431542 was withdrawn on Day 4, and SHH C24II was withdrawn on Day 8. From Day 10 (Stage 2-3), the medium was changed to a differentiation medium containing DMEM: F12/B27 (minus Vitamin A) (98:2, v/v) as basal medium and supplemented with 0.2 μM LDN193189 and 3 μM CHIR99021. During the cell culture, each of the differentiation media was replaced every day. On Day 16 (at the end of S2-3), EBs were dissociated for single cells and collected for analysis. The cells of each group were stained with FOXA2-PE antibody (BD, #561689), the percentage of FOXA2+ imDAP cells were analyzed by flow cytometry (FIG. 5). The above experiment was repeated for three times and the derived imDAP cells were named as Lot1, Lot2 and Lot3, respectively.
On Day-1, EB formation (Stage 1) was carried out by dissociating hiPSCs (Nuwacell) to form a single-cell suspension and resuspending it in Epic medium (Nuwacell, #RP01001) containing 10 μM Blebbistatin (MCE, #HY-13441) in T25 flasks on a belly dancer and culturing the cells overnight. On Day 0, ventral midbrain floor plate differentiation (Stage 2) was initiated by changing the medium to a Stage 2-1 differentiation medium containing DMEM: F12/B27 (plus Vitamin A) (98:2, v/v) as basal medium and supplemented with 0.2 μM LDN193189, 20 μM SB431542, 1.2 μM CHIR99021, and 1 μg/mL SHH C24II or the combination of SHH agonists including 500 ng/mL SHH C24II, 2 μM Purmorphamine and 10 nM SAG and culturing the cells for 3 days. From Day 3, the basal medium was changed to DMEM: F12/B27 (minus Vitamin A) (98:2, v/v). Cells were exposed to Boost-CHIR concentration of 7.5 μM starting from Day 4 to Day 6 (Stage 2-2), followed by a low CHIR concentration of 1.2 μM (Stage 2-3) until Day 10. […]

With `Cc1cnc(-c2cnc(NCCNc3ccc(C#N)cn3)nc2-c2ccc(Cl)cc2Cl)[nH]1` [CHIR, CHIR99021] the “percentage of cells positive for FOXA2” value (low CHIR concentration 1.2 μM in Stage 2-3 (Day 8 to Day 10)) was 91.02%, the “percentage of cells positive for FOXA2” value (low CHIR concentration 1.4 μM in Stage 2-3 (Day 8 to Day 10)) was 81.89% and the “percentage of cells positive for FOXA2” value (low CHIR concentration 1.6 μM in Stage 2-3 (Day 8 to Day 10)) was 85.96%.
